From US20210254106A1, “ENGINEERING B LYMPHOCYTES BY UTILIZING ENDOGENOUS ACTIVATION-INDUCED CYTIDINE DEAMINASE” (INSTITUTE FOR RESEARCH IN BIOMEDICINE, priority 2018, published 2021)

Test system: naïve B cells (IgM+ IgD+ CD27− IgG− IgA−)
Test: in vitro acquisition of natural switch region inserts in stimulated naïve B cells with DNA repair inhibitors
Assay type: cell-based, human
Settings: Olaparip 4 nM or SCR7 100 nM in culture medium vs DMSO control; B cells stimulated with K562L (CD40L) and IL4; harvested day 10; 50 000 sorted IgG switched B cells; γ-switch region PCR and MinION sequencing
Protocol: To this end, B cells were isolated by magnetic beads using anti-CD19 beads, followed by FACS-sorting and selection of naïve B cells (IgM^+ IgD^+ CD27^− IgG^− IgA^−). Cells were plated in 48 well plates at concentrations of 50 000 B cells/ml and stimulated with 25 000 irradiated K562L/ml and 8 ng/ml IL4. The DNA repair inhibitor Olaparip (4 nM), SCR7 (100 nM) or DMSO (1:100) as control were added to the culture medium. At day 3 and day 6 the culture medium was replaced which fresh medium supplemented with IL4 and inhibitors. Cells were harvested at day 10 and stained with fluorescently labeled anti-CD19 and anti-IgG antibodies. Switched IgG B cell were sorted by flow cytometry and gDNA was isolation using a commercial kit. Genomic DNA of 50 000 sorted cells were used for γ-switch region PCR amplification and MINION sequencing as described above. Inserts frequencies were analyzed with a bioinformatics pipeline (Pieper K, Tan J, Piccoli L, Foglierini M, Barbieri S, Chen Y, Silacci-Fregni C, Wolf T, Jarrossay D, Anderle M, Abdi A, Ndungu F M, Doumbo O K, Traore B, Tran T M, Jongo S, Zenklusen I, Crompton P D, Daubenberger C, Bull P C, Sallusto F, Lanzavecchia A: Public antibodies to malaria antigens generated by two LAIR1 insertion modalities. Nature. 2017. Aug. 31; 548(7669):597-601).

With `O=C(c1cc(Cc2n[nH]c(=O)c3ccccc23)ccc1F)N1CCN(C(=O)C2CC2)CC1` [Olaparib] the “natural switch insert frequencies” value was “elevated”.
For SCR7, the “natural switch insert frequencies” value was “decreased”.
